Laboratory results taken from PubChem BioAssay AID248 (DTP/NCI, 2004).
Toxic doses and inconclusive results are not listed. No stated cut-off is given here; in the data, active means T/C of 150% or more; inactive means T/C below 125%.

Tested on: L1210 leukemia ip in BDF1 mice, survival T/C
Test: NCI In Vivo Anticancer Drug Screen. Data for tumor model L1210 Leukemia (intraperitoneal) in B6D2F1 (BDF1) mice
Settings: endpoint: mean survival time, higher = longer survival
Outline: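 Survival endpoint. Drug-treated group vs vehicle group, expressed as T divided by C. Tumor passaged by transplantation.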

[1] = dose: 25.0 mg/kg/injection, schedule: Q04DX003 (ip), vehicle: saline
[2] = dose: 100.0 mg/kg/injection, schedule: Q04DX003 (ip), vehicle: Klucel (hydroxypropylcellulose) (HPC)
[3] = dose: 200.0 mg/kg/injection, schedule: Q04DX003 (ip), vehicle: Klucel (hydroxypropylcellulose) (HPC)
[4] = dose: 400.0 mg/kg/injection, schedule: Q04DX003 (ip), vehicle: Klucel (hydroxypropylcellulose) (HPC)
[5] = dose: 100.0 mg/kg/injection, schedule: Q01DX001 (ip), vehicle: saline
[6] = dose: 100.0 mg/kg/injection, schedule: Q01DX009 (ip), vehicle: saline with Tween-80
[7] = dose: 200.0 mg/kg/injection, schedule: Q01DX009 (ip), vehicle: saline with Tween-80
[8] = dose: 100.0 mg/kg/injection, schedule: Q04DX003 (ip), vehicle: saline with Tween-80
[9] = dose: 200.0 mg/kg/injection, schedule: Q04DX003 (ip), vehicle: saline with Tween-80
[10] = dose: 100.0 mg/kg/injection, schedule: Q01DX001 (ip), vehicle: carboxymethylcellulose (CMC)
[11] = dose: 200.0 mg/kg/injection, schedule: Q01DX001 (ip), vehicle: carboxymethylcellulose (CMC)
[12] = dose: 400.0 mg/kg/injection, schedule: Q01DX001 (ip), vehicle: carboxymethylcellulose (CMC)

Measured: T/C

CCC1CC(C#N)C(=O)NC1=O (configuration not stated)
inactive: dose: 6.25 mg/kg/injection, schedule: Q01DX009 (ip), vehicle: saline 93 % of control | dose: 12.5 mg/kg/injection, schedule: Q01DX001 (ip), vehicle: saline 108 % of control | dose: 12.5 mg/kg/injection, schedule: Q01DX009 (ip), vehicle: saline 91 % of control | dose: 12.5 mg/kg/injection, schedule: Q04DX003 (ip), vehicle: saline 100 % of control | dose: 25.0 mg/kg/injection, schedule: Q01DX001 (ip), vehicle: saline 100 % of control | dose: 25.0 mg/kg/injection, schedule: Q01DX009 (ip), vehicle: saline 93 % of control | [1] 92 % of control | dose: 50.0 mg/kg/injection, schedule: Q01DX001 (ip), vehicle: saline 110 % of control

C1=CC(OC2C=CCC2)CC1 (configuration not stated)
inactive: dose: 25.0 mg/kg/injection, schedule: Q04DX002 (ip), vehicle: saline 89 % of control | dose: 50.0 mg/kg/injection, schedule: Q04DX002 (ip), vehicle: saline 118 % of control | dose: 100.0 mg/kg/injection, schedule: Q04DX002 (ip), vehicle: saline 99 % of control

Nc1nccc2n[nH]nc12
inactive: dose: 100.0 mg/kg/injection, schedule: Q01DX001 (ip), vehicle: Klucel (hydroxypropylcellulose) (HPC) 100 % of control | [2] 103 % of control | dose: 200.0 mg/kg/injection, schedule: Q01DX001 (ip), vehicle: Klucel (hydroxypropylcellulose) (HPC) 92 % of control | [3] 101 % of control | dose: 400.0 mg/kg/injection, schedule: Q01DX001 (ip), vehicle: Klucel (hydroxypropylcellulose) (HPC) 97 % of control | [4] 101 % of control

N#CC1C(=O)NC(=O)C(C#N)C12CCCCC2 (configuration not stated)
inactive: [5] 106 % of control | [6] 101 % of control | dose: 200.0 mg/kg/injection, schedule: Q01DX001 (ip), vehicle: saline 106 % of control | [7] 97 % of control

NNC(=S)NCCc1ccccc1
inactive: dose: 25.0 mg/kg/injection, schedule: Q01DX009 (ip), vehicle: Klucel (hydroxypropylcellulose) (HPC) 101 % of control | dose: 50.0 mg/kg/injection, schedule: Q01DX009 (ip), vehicle: Klucel (hydroxypropylcellulose) (HPC) 105 % of control

N#CCc1ccccc1NC(=O)CCl
inactive: dose: 100.0 mg/kg/injection, schedule: Q01DX001 (ip), vehicle: saline with Tween-80 100 % of control | dose: 200.0 mg/kg/injection, schedule: Q01DX001 (ip), vehicle: saline with Tween-80 106 % of control | dose: 400.0 mg/kg/injection, schedule: Q01DX001 (ip), vehicle: saline with Tween-80 108 % of control

S=C([S-])[P+](C1CCCCC1)(C1CCCCC1)C1CCCCC1
inactive: dose: 50.0 mg/kg/injection, schedule: Q01DX009 (ip), vehicle: saline with Tween-80 97 % of control | [6] 97 % of control | [8] 97 % of control | [7] 97 % of control | [9] 87 % of control

Nc1cc(NCc2ccccc2)nc(=O)[nH]1
inactive: dose: 100.0 mg/kg/injection, schedule: Q01DX001 (ip), vehicle: gum acacia 97 % of control | dose: 200.0 mg/kg/injection, schedule: Q01DX001 (ip), vehicle: gum acacia 95 % of control | dose: 400.0 mg/kg/injection, schedule: Q01DX001 (ip), vehicle: gum acacia 101 % of control

O=C(SCO)c1ccccc1
inactive: dose: 100.0 mg/kg/injection, schedule: Q01DX009 (sc), vehicle: olive oil, sesame oil, peanut oil 108 % of control | dose: 100.0 mg/kg/injection, schedule: Q04DX003 (sc), vehicle: olive oil, sesame oil, peanut oil 107 % of control | dose: 200.0 mg/kg/injection, schedule: Q01DX009 (sc), vehicle: olive oil, sesame oil, peanut oil 96 % of control | dose: 200.0 mg/kg/injection, schedule: Q04DX003 (sc), vehicle: olive oil, sesame oil, peanut oil 96 % of control | dose: 400.0 mg/kg/injection, schedule: Q01DX009 (sc), vehicle: olive oil, sesame oil, peanut oil 103 % of control | dose: 400.0 mg/kg/injection, schedule: Q04DX003 (sc), vehicle: olive oil, sesame oil, peanut oil 93 % of control

O=C(OCC1OC(n2c(=O)[nH]c(=S)c3ncsc32)C(OC(=O)c2ccccc2)C1OC(=O)c1ccccc1)c1ccccc1 (configuration not stated)
inactive: dose: 100.0 mg/kg/injection, schedule: Q01DX005 (ip), vehicle: saline 95 % of control | dose: 200.0 mg/kg/injection, schedule: Q01DX005 (ip), vehicle: saline 91 % of control

CC(=O)Nc1ccc(C=O)cc1[N+](=O)[O-]
inactive: dose: 100.0 mg/kg/injection, schedule: Q01DX009 (ip), vehicle: Klucel (hydroxypropylcellulose) (HPC) 101 % of control | [2] 100 % of control | dose: 200.0 mg/kg/injection, schedule: Q01DX009 (ip), vehicle: Klucel (hydroxypropylcellulose) (HPC) 104 % of control | [3] 100 % of control | dose: 400.0 mg/kg/injection, schedule: Q01DX009 (ip), vehicle: Klucel (hydroxypropylcellulose) (HPC) 94 % of control | [4] 100 % of control

CC(C)(C)N1CC(C(=O)c2ccc3ccccc3c2)C1c1ccccc1 (configuration not stated)
inactive: [8] 93 % of control | [9] 98 % of control | dose: 400.0 mg/kg/injection, schedule: Q04DX003 (ip), vehicle: saline with Tween-80 88 % of control

CNC1(c2ccccc2)CC2CCC(C2)C1=O (configuration not stated)
inactive: [1] 100 % of control | dose: 50.0 mg/kg/injection, schedule: Q04DX003 (ip), vehicle: saline 86 % of control | [5] 102 % of control

C1=C(c2ccccc2)c2c(c3ccccc3c3ccccc23)C(c2ccccc2)=CC1
inactive: dose: 50.0 mg/kg/injection, schedule: Q01DX001 (ip), vehicle: carboxymethylcellulose (CMC) 100 % of control | [10] 100 % of control | [11] 94 % of control | [12] 94 % of control

O=C1NC(=O)C(Cc2ccccc2)(Cc2ccccc2)C(=O)N1
inactive: [10] 103 % of control | [11] 95 % of control | [12] 95 % of control

Cc1ccc(Nc2cc(=O)[nH]c(N)n2)cc1Cl
inactive: dose: 100.0 mg/kg/injection, schedule: Q01DX Z (ip), vehicle: methylcellulose (MC) 86 % of control | dose: 200.0 mg/kg/injection, schedule: Q01DX Z (ip), vehicle: methylcellulose (MC) 103 % of control

CC/C=N\NC
inactive: dose: 5.0 mg/kg/injection, schedule: Q01DX001 (ip), vehicle: saline 111 % of control | dose: 6.6 mg/kg/injection, schedule: Q01DX015 (ip), vehicle: saline 94 % of control | dose: 10.0 mg/kg/injection, schedule: Q01DX001 (ip), vehicle: saline 103 % of control | dose: 10.0 mg/kg/injection, schedule: Q01DX015 (ip), vehicle: saline 94 % of control | dose: 15.0 mg/kg/injection, schedule: Q01DX015 (ip), vehicle: saline 100 % of control | dose: 20.0 mg/kg/injection, schedule: Q01DX001 (ip), vehicle: saline 112 % of control | dose: 22.5 mg/kg/injection, schedule: Q01DX015 (ip), vehicle: saline 95 % of control | dose: 40.0 mg/kg/injection, schedule: Q01DX001 (ip), vehicle: saline 120 % of control

N#C/C(=C\c1c(O)ccc2ccccc12)c1ccc([N+](=O)[O-])cc1
inactive: dose: 66.0 mg/kg/injection, schedule: Q01DX009 (ip), vehicle: saline with Tween-80 89 % of control | [6] 91 % of control | dose: 150.0 mg/kg/injection, schedule: Q01DX009 (ip), vehicle: saline with Tween-80 86 % of control

CCCN1C(=O)CCC1=O
inactive: dose: 75.0 mg/kg/injection, schedule: Q04DX003 (ip), vehicle: saline 109 % of control | dose: 150.0 mg/kg/injection, schedule: Q04DX003 (ip), vehicle: saline 97 % of control | dose: 300.0 mg/kg/injection, schedule: Q04DX003 (ip), vehicle: saline 101 % of control
